Some test systems named below: CAKI-1; MOLT-4; NCI/ADR-RES; 786-0; HCT-15; MCF7; SK-MEL-2; SNB-19; LOX IMVI; UACC-62; BT-549; RPMI-8226; K562; U-251; KM-20L2; OVCAR-5; SF-268; EKVX; MDA-N; CCRF-CEM.
Holding throughout (experiment): DTP human tumour cell line panel, 48 h

Here are results for 2 compounds from ChEMBL document CHEMBL1201862, “PubChem BioAssay data set” (2004).

SMILES strings stand for the structures.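 These data come from cells grown in 96-well plates and exposed to compound for 48 hours at five concentrations. Here, GI50 denotes the concentration required for 50% inhibition of growth.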 Calls of active or inactive are those of the source. No stated cut-off is given here; in the data, active = GI50 up to about 1.1 µM and inactive = higher. A value given as a limit tells only on which side of the number the result lay.

On to `CN(C)CCNC(=O)c1cccc2ccc(-c3ccc(O)cc3)nc12`, for which the GI50 (as a rule, the concentration that inhibits growth by half) in the assay on CAKI-1 was 1.19 µM (inactive); in the assay on MOLT-4, 0.238 µM (active); in the assay with NCI/ADR-RES it was 5.11 µM (inactive); in the assay on 786-0, 2.63 µM (inactive); with HCT-15, 2.75 µM; with MCF7, 0.859 µM (active). Further, the GI50 in the assay with SK-MEL-2 was 4.5 µM (inactive); in the assay with SNB-19, 1.31 µM (inactive); with LOX IMVI, 0.743 µM (active); in the assay with UACC-62, 1.39 µM (inactive); in the assay with BT-549, 6.82 µM (inactive); in the assay on RPMI-8226 it was 2.39 µM (inactive). In addition, the GI50 in the assay on K562 is 0.839 µM (active); with U-251, 2.06 µM (inactive); with KM-20L2 it was 6.68 µM (inactive); in the assay with OVCAR-5, 1.71 µM (inactive); in the assay on SF-268, 3.92 µM (inactive); in the assay on EKVX it was 8.36 µM (inactive). Also, the GI50 in the assay on MDA-N was 2.39 µM (inactive); in the assay on CCRF-CEM, 1.35 µM (inactive).
Regarding `CCN(CC)CCn1c2ccccc2c(=O)c2c(O)ccc(O)c21`, the GI50 in the assay on CAKI-1 is 35.5 µM (inactive); in the assay on MOLT-4, 18.5 µM (inactive); with NCI/ADR-RES, 19.6 µM (inactive); in the assay with 786-0, 34.1 µM (inactive); in the assay with HCT-15, 33.8 µM; in the assay on MCF7, 18.8 µM (inactive). In addition, the GI50 with SK-MEL-2 is 33.4 µM (inactive); in the assay on SNB-19, 58.9 µM (inactive); with LOX IMVI it was 15.1 µM (inactive); with UACC-62 it was 3.48 µM (inactive); with BT-549, 22.5 µM (inactive); in the assay with RPMI-8226, 19.9 µM (inactive). Besides, the GI50 with K562 was 15.9 µM (inactive); in the assay on U-251, 42.1 µM (inactive); in the assay with KM-20L2 it was > 100 µM (inactive); with OVCAR-5, 55.7 µM (inactive); in the assay with SF-268, 30.5 µM (inactive); in the assay with EKVX it was > 46.5 µM (inactive). In addition, the GI50 is 18.7 µM (inactive) in the assay on MDA-N and 11 µM (inactive) in the assay with CCRF-CEM.
